Measurements from a melting point compilation (Tetko et al.; mined from patent text by program, amines drawn as free bases though some values may be those of a salt).
Residues, ends and D or L forms follow the SMILES beside them. *: point of attachment. Tos = Cc1ccc(S(=O)(=O)*)cc1

| SMILES | melting point |
| --- | --- |
| Cc1ccc(S(=O)(=O)N[C@@H](CCC(=O)O)C(=O)N[C@@H](Cc2ccc(O)cc2)C(=O)O)cc1 (Tos-Glu-Tyr-OH) | 173 to 175 °C |
| CCc1nc(/C=C/c2cn(-c3ccccc3)nc2OCc2ccc(OCc3nc(-c4ccc(CC(=O)O)cc4)oc3C)c(OC)c2)co1 | 117 to 119 °C |
| CCCCCCCCCCN(O)C(=O)N(C)C | 44 to 45 °C |
| COC(=O)CCc1cnoc1-c1ccc(Cl)c(Br)c1 | 54 to 55 °C |
| NCC1=CC(c2ccccc2)Cc2c(O)cccc21 (stereo not drawn) | 102 to 104 °C |
| CN(C)CCCNc1ncc2c(n1)-c1ccccc1C(c1cccc(Br)c1)C2 (stereo not drawn) | 120 to 122 °C |
| COc1ccc(N)cc1OCCCN1CCC(c2noc3cc(F)ccc23)CC1 | 94 to 95 °C |
| CC(C)(C)OC(=O)Nc1ccccc1NC(=O)c1ccc(CBr)cc1 | 282 to 283 °C |
| O=C(OC1CCCCCC1=O)c1ccccc1 (stereo not drawn) | 59 to 60 °C |
| CCOc1cc2c(c3c1OC(C)(C)C3)C(c1cccc(NC(=O)CSC)c1)=NC(C)(C)C2 | 162 to 163 °C |
| CCn1c(C)nc2c(C(=O)OC)c(C(=O)OC)ccc21 | 127 to 128 °C |
| CC(C)(C)c1ccc(-c2cc(C=O)cc3c2C(C)(C)CCC3(C)C)cc1 | 129 °C |
| CCCCn1c(=O)c(NC(=O)Nc2c(C(C)C)cccc2C(C)C)c(-c2cccc(OC)c2)c2cccnc21 | 178 to 181 °C |
| O=C(N[C@H]1CSc2ccc(C(F)(F)F)cc2NC1=O)OCc1ccccc1 | 120 to 123 °C |
| CCc1cc(C(=O)c2ccccc2Cl)c(-n2c(C)nnc2CNC(=O)c2cc3ccccc3n2CCC(=O)OC)s1 | 67 to 68 °C |
| CCOC(=O)C(C)Oc1ccc(N(C)c2cc3ccc(Cl)cc3c(Cl)n2)cc1 (stereo not drawn) | 86 °C |
| CC1(C)C(=O)Nc2cccc(O)c21 | 224 to 225 °C |
| COc1nc(NC(=O)NS(=O)(=O)c2ccccc2C)nc(N(C)C)n1 | 194 to 198 °C |
| CC(C)Cn1cnc2c(N)nc3ccc(CCc4ccncc4)cc3c21 | 221 to 224 °C |
| NC1=NC(c2cccc(-c3cccnc3F)c2)(c2ccc3c(c2)OC(F)(F)O3)C2=NCCCN12 (stereo not drawn) | 95 to 99 °C |
| CCOC(=O)C1=C(C)NC(C=O)=C(C(=O)OCC)C1c1cccc([N+](=O)[O-])c1 (stereo not drawn) | 130 to 133 °C |
| CC(C)(C)OC(=O)NCC(=O)c1ccc(OCc2ccccc2)cc1 | 75 to 76 °C |
| Clc1cc(Cl)c2nccc(Br)c2c1 | 164 to 166 °C |
| O=C(O)CNC(=O)NC(=O)C(CC1CCCC1)c1ccc(Cl)c(Cl)c1 (stereo not drawn) | 204 to 207 °C |

| SMILES | melting point |
| --- | --- |
| Fc1ccc(Cn2c(NC3CCN(CCc4cn5ccccc5n4)CC3)nc3ccccc32)cc1 | 208 °C |
| O=C(O)Cn1cc(Cl)cnc1=O | 186 to 188 °C |
| COC(=O)c1cc2c(O)c(C(=O)NCc3ccc(Cl)cc3)cnc2nc1C | 265 to 267 °C |
| Cn1c(CC#N)ccc1C(=O)c1ccc(C(F)(F)F)cc1 | 95 to 97.5 °C |
| CC(=O)Nc1ncc(Sc2ccc(NS(C)(=O)=O)cc2)s1 | 236 to 239 °C |
| CCCSc1nc2c(cc1C#N)C(=O)CC(C)(C)C2 | 100 to 102 °C |
| CCOc1nn(-c2ccc(C(F)(F)F)cn2)cc1CCCCOc1cc(CCC(=O)O)n(-c2ccccc2)n1 | 138 to 139 °C |
| C=CCC(NC(=O)C(CCCCN)NC(=O)Cc1cn(CC=C)c2ccccc12)C(=O)OC (stereo not drawn) | 103 to 106 °C |
| Cc1ccn2c(C)c(-c3ccc4sc(=O)n(Cc5cccnc5)c4c3)nc2c1 | 201 to 202 °C |
| CC(O)c1cccc(NC(=O)NCC(=O)N(c2ccccc2)C(C)C(=O)N2CCCC(C)(C)C2)c1 (mixture of isomers) | 186 °C |
| Cc1nc[nH]c1CSCCN=C(NC#N)NCCc1c[nH]cn1 | 170 to 171 °C |
| O=c1c2c(-c3ccc(O)cc3)n[nH]c2c2cccnc2n1-c1ccccc1 | > 300 °C |
| CC(=O)N1C(C(=O)NC2CCC(O)CC2)C(c2cccc(Cl)c2F)C2(C(=O)Nc3cc(Cl)ccc32)C1CC(C)(C)C (stereo not drawn) | 220 °C |
| CCCCCCCCON1C(C)(C)CC(OC(=O)COc2ccc(-c3nc(-c4ccc(C)cc4C)nc(-c4ccc(C)cc4C)n3)c(O)c2)CC1(C)C | 86 to 90 °C |
| O=[N+]([O-])c1ccccc1NN=Cc1ncc(C(F)(F)F)cc1Cl | 127 to 135 °C |
| COC(=O)c1cc(C(=O)NCCN(C)C)c2cc(Cc3ccc(F)cc3)cnc2c1O | 115 to 116 °C |
| CC(=O)N1CC[C@H](Oc2ccc(C=Cc3cc4cc(C#N)ccc4o3)cc2O)C1 | 191 to 193 °C |
| CC(C=CC1(O)C(C)=CC2(OCCO2)c2ccccc21)=CCO (stereo not drawn) | 116 to 118 °C |
| Cc1cc(=O)n2c3c(cc(C(OCc4ccccc4)(C(F)(F)F)C(F)(F)F)cc13)CC2 | 207 to 208 °C |
| O=C(CCC1CCCCCCCCCCC1)C1=C(O)COC1=O | 99 to 102 °C |
| O=C(NCC1CCc2n[nH]cc2C1)[C@@H]1CCCN1C(=O)[C@@H](CC1CCCCC1)NS(=O)(=O)Cc1ccccc1 (stereo partly drawn) | 100 to 103 °C |
| COc1cc(OC)c(CC(=O)c2ccc(C(C)C)c(OS(N)(=O)=O)c2C(C)C)c(OC)c1 | 159 to 163 °C |
| ClCc1c(-c2ccccc2)c(-c2ccccc2)nn1Cc1ccccc1 | 99 °C |
| CS(=O)(=O)Nc1cc(C=C2c3ccccc3CCc3ccccc32)ccc1O | 123 °C |
